Measurements: the supplement of paper PMC8967900

Assays:
Test in all cases: selective drug sensitivity score (sDSS, relative to normal bone marrow) (sDSS (score)); higher = more potent and effective on the cell line relative to normal bone marrow cells
Details in all cases: 72 h
CCRF-HSB2 = tested on: CCRF-HSB2
COG-LL-355h = tested on: COG-LL-355h
COG-LL-394h = tested on: COG-LL-394h
DND-41 = tested on: DND-41
HAL-01 = tested on: HAL-01
KASUMI-10 = tested on: KASUMI-10
KASUMI-2 = tested on: KASUMI-2
KASUMI-9 = tested on: KASUMI-9
KOPN-8 = tested on: KOPN-8
MHH-CALL-3 = tested on: MHH-CALL-3
MOLT-16 = tested on: MOLT-16
MOLT-4 = tested on: MOLT-4
NALL-1 = tested on: NALL-1
NALM-16 = tested on: NALM-16
PEER = tested on: PEER
PF-382 = tested on: PF-382
REH = tested on: REH
RPMI-8402 = tested on: RPMI-8402
SUP-B15 = tested on: SUP-B15
TANOUE = tested on: TANOUE
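Also: ALL cell lines in 384-well plates, five doses spanning 10,000-fold, each plate scaled between vehicle and 100 µmol/L benzalkonium chloride controls, sDSS an adapted area-under-curve metric.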

SMILES	selective drug sensitivity score (CCRF-HSB2)	selective drug sensitivity score (COG-LL-355h)	selective drug sensitivity score (COG-LL-394h)	selective drug sensitivity score (DND-41)	selective drug sensitivity score (HAL-01)	selective drug sensitivity score (KASUMI-10)	selective drug sensitivity score (KASUMI-2)	selective drug sensitivity score (KASUMI-9)	selective drug sensitivity score (KOPN-8)	selective drug sensitivity score (MHH-CALL-3)	selective drug sensitivity score (MOLT-16)	selective drug sensitivity score (MOLT-4)	selective drug sensitivity score (NALL-1)	selective drug sensitivity score (NALM-16)	selective drug sensitivity score (PEER)	selective drug sensitivity score (PF-382)	selective drug sensitivity score (REH)	selective drug sensitivity score (RPMI-8402)	selective drug sensitivity score (SUP-B15)	selective drug sensitivity score (TANOUE)
CO[C@@H]1[C@H](N(C)C(=O)c2ccccc2)C[C@H]2O[C@]1(C)n1c3ccccc3c3c4c(c5c6ccccc6n2c5c31)C(=O)NC4 [Midostaurin] (top concentration 10000 nM)	11.7	4.66	-3.84	2.46	3.06	13.4	-1.14	11.7	12.1	-0.64	12.5	8.66	5.36	-0.64	4.16	4.46	3.66	3.66	8.96	-7.24
CN1CCC(CNc2ccc3ncc(-c4cccc(OC(F)(F)F)c4)n3n2)CC1 [SGI-1776] (top concentration 10000 nM)	3.12	1.72	0.82	-1.18	1.92	4.82	0.62	-1.68	-0.78	-3.98	-3.28	-2.88	-2.18	-1.38	-0.58	-2.68	-2.78	-2.68	-0.88	-8.18
CC(C)Oc1ccc(-c2nn([C@@H](C)c3oc4ccc(F)cc4c(=O)c3-c3cccc(F)c3)c3ncnc(N)c23)cc1F [TGR-1202] (top concentration 2500 nM)	-2.06	5.14	-1.46	2.74	3.04	-2.56	-2.36	1.44	4.54	-2.56	-2.46	-2.56	1.24	2.24	-1.86	-2.56	-1.76	-2.06	1.14	-2.56
COc1cccc2c1C(=O)c1c(O)c3c(c(O)c1C2=O)C[C@@](O)(/C(CO)=N/NC(=O)CCCCCN1C(=O)C=CC1=O)C[C@@H]3O[C@H]1C[C@H](N)[C@H](O)[C@H](C)O1 [Aldoxorubicin] (top concentration 1000 nM)	14.8	4.44	8.24	1.84	0.34	9.24	8.54	8.64	14.2	14.1	16.6	11.8	-1.86	-0.46	-3.06	3.24	12.1	5.34	12.5	-7.76
C[C@H](Nc1ncnc2nc[nH]c12)c1cc2cccc(Cl)c2c(=O)n1-c1ccccc1 [Duvelisib] (top concentration 500 nM)	-0.44	4.96	-0.84	-0.14	9.76	-0.94	9.86	3.36	0.16	-0.14	1.26	-0.94	-0.94	-0.94	-0.94	-0.94	-0.94	-0.94	0.06	-0.94
C#Cc1cccc(Nc2ncnc3cc(OCCOC)c(OCCOC)cc23)c1 [Erlotinib] (top concentration 10000 nM)	4.66	3.46	2.66	-1.24	0.46	4.06	3.96	3.26	7.06	1.66	4.36	1.56	-1.24	-1.24	5.16	0.46	-0.84	2.26	8.96	-1.24
CCS(=O)(=O)N1CCN(c2ccc(Nc3ncc(C(N)=O)c(NC4CC4)n3)cc2)CC1 [Cerdulatinib] (top concentration 10000 nM)	1.34	-7.46	-8.56	2.54	-11.9	0.24	-11.9	-1.36	3.14	-11.9	-2.36	-7.46	-8.76	-11.4	-0.16	-5.16	-5.16	-5.56	0.04	-10.1
Nc1cc(F)ccc1NC(=O)c1ccc(CNC(=O)/C=C/c2cccnc2)cc1 [Tucidinostat] (top concentration 10000 nM)	2.14	0.64	-3.86	1.04	-2.06	3.04	8.84	7.24	12.4	11.4	4.54	-0.76	-2.76	-0.36	5.44	0.74	3.34	2.94	5.34	-8.66
COc1cc(Nc2ncc3c(n2)-c2ccc(Cl)cc2C(c2c(F)cccc2OC)=NC3)ccc1C(=O)O [Alisertib] (top concentration 10000 nM)	26.4	7.98	2.28	0.88	17.8	14.6	18.5	25	21.3	12	29.6	21.8	16.2	0.28	26.6	14.3	14.4	10.2	24	-5.62
